Tested on: Cyclocephala immaculata
Experiment: Watering test with beetle larvae (Example 2)
Type: in vivo
Settings: L3 larvae, watering, (I-1) 600, azadirachtin 60, (I-1)+azadirachtin 600+60, trichlorfon 4529 g of active compound/ha
Source text: Beetle larvae (grubs) are important lawn pests. On the one hand, they feed on grass roots, damaging them directly, on the other hand they are a favoured food for birds which, searching for grubs, destroy the turf. For treatment against grubs, infested lawns are usually watered with insecticidal compositions. This type of treatment is emulated in the laboratory by Example 2.
To prepare a suitable active compound preparation, a commercial formulation of active compound or active compound combination is mixed with water until the desired concentration is reached. Pots with soil substrate were watered with the following active compound preparations: • 1. untreated • 2. compound (I-1) as SL 200, 600 g of active compound/ha • 3. azadirachtin, 60 g of active compound/ha • 4. compound (I-1) as SL 200+azadirachtin, 600+60 g of active compound/ha • 5. positive control: trichlorfon 4529 g of active compound/ha
L3 larvae of Cyclocephala immaculata were placed onto the pots. After 1, 4, 7, 14 days, the survival rate was determined, and this was used to calculate the efficacy of the compositions. 100% means that all grubs were killed, 0% means no activity.

With `COP(=O)(OC)C(O)C(Cl)(Cl)Cl` (stereo not shown) [trichlorfon] the “Effect on day 1 in %” value (day 1) was 0%, the “Effect on day 4 in %” value (day 4) was 17% and the “Effect on day 7 in %” value (day 7) was 29%. For the same compound, the “Effect on day 14 in %” value (day 14) was 50%.

— patent publication US8653110B2, “Active compound combination comprising azadirachtin and a substituted enaminocarbonyl compound” (Bayer CropScience AG, priority 2010, dated 2014)
